These results are taken from patent US6160004A, “C-10 carbon-substituted artemisinin-like trioxane compounds having antimalarial, antiproliferative and antitumor activities” (priority 1998, dated 2000).

Where two headings read alike, the source gives them in different places. Where only a bound is given, the exact number is not on record here.

The subject of one series is MDA-MB435. Nature of the series: NCI 60 cell line panel screening assay (SRB), MDA-MB435. The conditions noted are these: Homo sapiens; for GI50: read-out: Log10 GI50 (converted); for CC50: read-out: Log10 LC50 (converted). Type of series: cell-based.
The subject of the next series is HCC-2998. Nature of the series: NCI 60 cell line panel screening assay (SRB), HCC-2998. The conditions noted are these: Homo sapiens, HCC 2998, 48 h, read-out: Log10 LC50 (converted). Type of series: cell-based.
The test system of another series is SK-MEL-5. Description: NCI 60 cell line panel screening assay (SRB), SK-MEL-5. Type of series: cell-based. The note with it: Homo sapiens; SK-MEL-5, melanoma, 48 h; read-out: Log10 GI50 (converted).
Another series can be described thus: Stability (hydrolysis). Format: physicochemical.
The subject of a further series is IGROVI. Description: NCI 60 cell line panel screening assay (SRB), IGROVI. Format: cell-based. The note with it: 48 h, read-out: Log10 TGI.
In series [1] the test system is murine keratinocyte cell line PE. Description: Growth inhibition of murine keratinocytes (MTT). Type of series: cell-based, murine (SENCAR mice). The note with it: 100 nanomolar. The procedure: To determine the inhibitory effect of the compositions of the present invention on cell proliferation, screening assays were performed on a murine keratinocyte cell line PE. Cell line PE was chosen for its particular sensitivity to the induction of ornithine decarboxylase (ODC) activity by the extensively characterized tumor promoter TPA. […] PE cell culture medium consisted of Eagle's minimal essential medium without calcium chloride (Whittaker Bioproducts, Walkersville, Mass.) supplemented with 8% chelexed fetal calf serum and 1% antibiotic-antimycotic (Gibco BRL) and the addition of CaCl2 to 0.05 mM Ca^++.
MTT [3-(4,5-dimethylthiazol-2-yl)-2,5-diphenyltetraxolium bromide] was purchased from Sigma Chemical Co. (St. Louis, Mo.), and TPA was supplied by L.C. Services (Woburn, Mass.). L-[^14 C]omithine (56 μCi/mol) was from Amersham/Searle Corp. (Arlington Heights, Ill.). Chemical solvents used in all assays of biological activity were of the highest grade commercially available.
Growth Inhibition. Growth curves, shown in FIGS. 1-5, for PE cells treated with calcitriol and the C-10 carbon-substituted dimers 38, 39, 43, 44, 45, 47 and 48, and monomer 27 generated by assay for the reduction of the tetrazolium-based compound MTT, see Charmichael, et al., Cancer Res., 47:936-942 (1987). […] PE cells were seeded at a density of 5,000 cells/well in 50 μL of medium into 96-well microtiter plates. Twelve hours later, the medium was removed, and cells were treated with 100 μL of fresh medium into which the appropriate amount of calcitriol or analog dissolved in dimethyl sulfoxide (DMSO) had been added, with the concentration of DMSO held constant at 0.1%. […] At 24-hour intervals following the initial treatment of the cells with compounds, 0.1 mg (50 μL of a 2 mg/mL solution) of MTT was added to each well. After 4 hours, the MTT was removed and DMSO added to dissolve the blue formazan dye. Using a microtiter plate reader, the A505 was then determined and cell number calculated from blank-subtracted absorbance values.

A further series concerns 60 cell line panel. The conditions noted are these: 60 line panel, earlier studies; cited from earlier work.
The test system of series [2] is P. falciparum Camp (chloroquine-susceptible) and Smith (chloroquine-resistant) strains. The note with it: P. falciparum in vitro; cited from earlier work.
Series [3] relates to Ehrlich ascites tumor (EAT) cells. The conditions noted are these: MTT, growth inhibition; cited from earlier work.
Series [4] relates to P. falciparum, two Hanian strains. The conditions noted are these: P. falciparum in vitro; cited from earlier work.
The test system of series [5] is P. vivax and P. falciparum. The note with it: cited from earlier work.
For another series, the system named is P. berghei. The note with it: P. berghei-infected mice, parasitemia 90 percent suppressed; cited from earlier work.
Another series deals with malaria. Description: In vivo antimalarial activity. The conditions noted are these: sc. Details: species or system rodents.
The conditions of series [6]: cited from earlier work.

By GI50 is commonly meant the concentration at which growth is held to half of that of the control. As for `CC1CCC2C(C)C(CC(=O)c3ccc(C(=O)CC4OC5OC6(C)CCC7C(C)CCC(C4C)C57OO6)cc3)OC3OC4(C)CCC1C32OO4` (stereo not shown) [Dimer 38], in the series on MDA-MB435 (MDA-MB-435, 48 h), the GI50 is less than 0.01 µM and the CC50 is more than 100 µM.
As for `C[C@H]1[C@@H](F)O[C@@H]2O[C@@]3(C)CC[C@H]4[C@H](C)CC[C@@H]1[C@@]24OO3` [Compound VI, 10β-Fluoro-10-deoxoartemisinin], the CC50 in the series on HCC-2998 was more than 100 µM. Further, in the series with SK-MEL-5, the GI50 is 0.49 µM. For the same compound, the stability entry in the series “Stability (hydrolysis)” was “stable crystalline solid”.
For `CC1CCC2C(C)C(CC(=O)c3cccc(C(=O)CC4OC5OC6(C)CCC7C(C)CCC(C4C)C57OO6)c3)OC3OC4(C)CCC1C32OO4` (stereo not shown) [Dimer 39], the IC (TGI) in the series with IGROVI was more than 100 µM. Also, the “antiproliferative activity relative to calcitriol” value in [1] is “at least as antiproliferative as calcitriol”. In the series on MDA-MB435 (MDA-MB-435, 48 h), the CC50 is more than 100 µM. Moreover, the GI50 in the series on MDA-MB435 (MDA-MB-435, printed MDA-MBA35, breast cancer, 48 h) was more than 100 µM.
A word on the IC50: it is the concentration at which inhibition is half-maximal. By ED50 is commonly meant the midpoint of the dose-response relation. For the compound `C[C@@H]1CC[C@H]2[C@@H](C)C(=O)O[C@@H]3O[C@@]4(C)CC[C@@H]1[C@]32OO4` [Artemisinin], the anticancer activity entry with 60 cell line panel is “very little anticancer activity”. Moreover, the “potency compared to mefloquine” value in series [2] is recorded as “comparable”. The IC50 in [3] was 29.8 µM. Moreover, the “potency compared to chloroquine” value in series [4] was “comparable”. Besides, the “clinical outcome in malaria patients” value was “clinical cure of all patients” in series [5] and “used successfully in many thousand malaria patients” in [5] (listed as artemisinin). In addition, in the series with P. berghei, the SD90 is 6.20 mg/kg. Also, in the series with malaria (read-out: ED50 subcutaneous), the ED50 was 3 mg/kg. In the series with malaria (read-out: ED90 subcutaneous), the ED90 is 8.5 mg/kg. In series [6], the solubility in water result is given as “insolubility in water”.
